Here are results for 7 compounds from ChEMBL document CHEMBL4308897, “Antileishmanial activity and cytotoxicity of ent-beyerene diterpenoids” (Bioorg Med Chem, 2019).

The nature of data set [1]: Cytotoxicity against human U937 cells after 72 hrs by MTT assay. Type of data set: cell-based, U-937. Particulars: read-out: LC50.
The test system of data set [2] is Leishmania braziliensis. In words: Antileishmanial activity against Leishmania (Viannia) braziliensis HMOM/COL/88/UA301-EGFP intracellular amastigotes infected in human U937 cells after 72 hrs by flow cytometric analysis. Type of data set: functional, organism-based. Conditions: HMOM/COL/88/UA301, U-937, 72 h.
Data set [3] is described as follows: Selectivity index, ratio of LC50 for human U937 cells to EC50 for Leishmania (Viannia) braziliensis HMOM/COL/88/UA301-EGFP intracellular amastigotes infected in human U937 cells. Particulars: read-out: Selectivity Index. Type of data set: toxicity, cell-based.
Data set [4] has as its system Leishmania braziliensis. In words: Antileishmanial activity against Leishmania (Viannia) braziliensis HMOM/COL/88/UA301-EGFP infected in golden hamster assessed as cure rate at 0.81% administered topically as cream formulation for 20 days measured 3 months post last dose relative to control. Type of data set: functional.
The subject of data set [5] is Leishmania braziliensis. In words: Antileishmanial activity against Leishmania (Viannia) braziliensis HMOM/COL/88/UA301-EGFP infected in golden hamster assessed as clinical improvement at 0.81% administered topically as cream formulation for 20 days measured 3 months post last dose relative to control. Type of data set: functional.
In data set [6] the test system is Leishmania braziliensis. The data set can be described thus: Antileishmanial activity against Leishmania (Viannia) braziliensis HMOM/COL/88/UA301-EGFP infected in golden hamster assessed as cure rate at 1.96% administered topically as cream formulation for 20 days measured 3 months post last dose relative to control. Type of data set: functional.
Data set [7] has as its system Leishmania braziliensis. In words: Antileishmanial activity against Leishmania (Viannia) braziliensis HMOM/COL/88/UA301-EGFP infected in golden hamster assessed as clinical improvement at 1.96% administered topically as cream formulation for 20 days measured 3 months post last dose relative to control. Type of data set: functional.
In data set [8] the test system is Leishmania braziliensis. The data set can be described thus: Antileishmanial activity against Leishmania (Viannia) braziliensis HMOM/COL/88/UA301-EGFP infected in golden hamster assessed as clinical failure at 0.81% administered topically as cream formulation for 20 days measured 3 months post last dose relative to control. Type of data set: functional.
For data set [9], the system named is Leishmania braziliensis. In words: Antileishmanial activity against Leishmania (Viannia) braziliensis HMOM/COL/88/UA301-EGFP infected in golden hamster assessed as clinical failure at 1.96% administered topically as cream formulation for 20 days measured 3 months post last dose relative to control. Type of data set: functional.
Data set [10] deals with Leishmania braziliensis. The data set can be described thus: Antileishmanial activity against Leishmania (Viannia) braziliensis HMOM/COL/88/UA301-EGFP infected in golden hamster assessed as relapse at 1.96% administered topically as cream formulation for 20 days measured 3 months post last dose relative to control. Type of data set: functional.
Data set [11] can be described thus: Toxicity in golden hamster infected with Leishmania (Viannia) braziliensis HMOM/COL/88/UA301-EGFP assessed as change in body weight at 0.81% to 1.96% administered topically as cream formulation for 20 days measured up to 90 days post last dose. Conditions: in vivo, topical_or_ocular. Details: species or system Mesocricetus auratus.
The nature of data set [12]: Toxicity in golden hamster infected with Leishmania (Viannia) braziliensis HMOM/COL/88/UA301-EGFP assessed as effect on serum alanine aminotransferase level at 0.81% to 1.96% administered topically as cream formulation for 20 days and measured day 8 post last treatment. Particulars: in vivo, topical_or_ocular, 480 h. Also noted: species or system Mesocricetus auratus.

The nature of data set [13]: Toxicity in golden hamster infected with Leishmania (Viannia) braziliensis HMOM/COL/88/UA301-EGFP assessed as effect on serum creatinine level at 0.81% to 1.96% administered topically as cream formulation for 20 days and measured day 8 post last treatment. Also noted: species or system Mesocricetus auratus. Particulars: in vivo, topical_or_ocular, 480 h.
Data set [14] is described as follows: Toxicity in golden hamster infected with Leishmania (Viannia) braziliensis HMOM/COL/88/UA301-EGFP assessed as effect on serum BUN level at 0.81% to 1.96% administered topically as cream formulation for 20 days and measured day 8 post last treatment. Also noted: species or system Mesocricetus auratus. Conditions: in vivo, topical_or_ocular, 480 h.
For data set [15], the system named is Leishmania braziliensis. In words: Antileishmanial activity against Leishmania (Viannia) braziliensis HMOM/COL/88/UA301-EGFP infected in golden hamster assessed as relapse at 0.81% administered topically as cream formulation for 20 days measured 3 months post last dose relative to control. Type of data set: functional.
Data set [16] has as its system Syrian golden hamster. The data set can be described thus: Antiinflammatory activity in golden hamster infected with Leishmania (Viannia) braziliensis HMOM/COL/88/UA301-EGFP assessed as migration of lymphocytes in skin at 0.81% to 1.96% administered topically as cream formulation for 20 days and measured 3 months post last treatment by histopathological analysis. Particulars: Mesocricetus auratus. Type of data set: functional, organism-based.

The test system of data set [17] is Syrian golden hamster. The data set can be described thus: Antiinflammatory activity in golden hamster infected with Leishmania (Viannia) braziliensis HMOM/COL/88/UA301-EGFP assessed as migration of plasmocytes in skin at 0.81% to 1.96% administered topically as cream formulation for 20 days and measured 3 months post last treatment by histopathological analysis. Conditions: Mesocricetus auratus. Type of data set: functional, organism-based.

Data set [18] concerns Syrian golden hamster. In words: Antiinflammatory activity in golden hamster infected with Leishmania (Viannia) braziliensis HMOM/COL/88/UA301-EGFP assessed as migration of macrophages in skin at 0.81% to 1.96% administered topically as cream formulation for 20 days and measured 3 months post last treatment by histopathological analysis. Conditions: Mesocricetus auratus. Type of data set: functional, organism-based.

Data set [19] relates to Leishmania braziliensis. The data set can be described thus: Antileishmanial activity against Leishmania (Viannia) braziliensis HMOM/COL/88/UA301-EGFP infected in golden hamster assessed as parasitic load per milligram of tissue at 0.81 to 1.96% administered topically as cream formulation for 20 days measured 3 months post last dose by RT-PCR analysis. Type of data set: functional.

The nature of data set [20]: Hepatotoxicity in golden hamster infected with Leishmania (Viannia) braziliensis HMOM/COL/88/UA301-EGFP assessed as vacuolar degeneration at 0.81% to 1.96% administered topically as cream formulation for 20 days measured 90 days post last dose by histopathological analysis. Conditions: in vivo, topical_or_ocular, 2160 h. Type of data set: toxicity, Mesocricetus auratus.

Data set [21] in a line: Hepatotoxicity in golden hamster infected with Leishmania (Viannia) braziliensis HMOM/COL/88/UA301-EGFP assessed as hemosiderin pigmentation at 0.81% to 1.96% administered topically as cream formulation for 20 days measured 90 days post last dose by histopathological analysis. Type of data set: toxicity, Mesocricetus auratus. Particulars: in vivo, topical_or_ocular, 2160 h.

Data set [22] is described as follows: Hepatotoxicity in golden hamster infected with Leishmania (Viannia) braziliensis HMOM/COL/88/UA301-EGFP assessed as congestion at 0.81% to 1.96% administered topically as cream formulation for 20 days measured 90 days post last dose by histopathological analysis. Type of data set: toxicity, Mesocricetus auratus. Particulars: in vivo, topical_or_ocular, 2160 h.

Data set [23] in a line: Hepatotoxicity in golden hamster infected with Leishmania (Viannia) braziliensis HMOM/COL/88/UA301-EGFP assessed as infiltration of lymphocytes at 0.81% to 1.96% administered topically as cream formulation for 20 days measured 90 days post last dose by histopathological analysis. Type of data set: toxicity, Mesocricetus auratus. Conditions: in vivo, topical_or_ocular, 2160 h.

A short description of data set [24]: Hepatotoxicity in golden hamster infected with Leishmania (Viannia) braziliensis HMOM/COL/88/UA301-EGFP assessed as infiltration of macrophages at 0.81% to 1.96% administered topically as cream formulation for 20 days measured 90 days post last dose by histopathological analysis. Type of data set: toxicity, Mesocricetus auratus. Particulars: in vivo, topical_or_ocular, 2160 h.

Data set [25] can be described thus: Renal toxicity in golden hamster infected with Leishmania (Viannia) braziliensis HMOM/COL/88/UA301-EGFP assessed as vacuolar degeneration at 0.81% to 1.96% administered topically as cream formulation for 20 days measured 90 days post last dose by histopathological analysis. Particulars: in vivo, topical_or_ocular, 2160 h. Also noted: species or system Mesocricetus auratus.

Each structure is given as a SMILES string. The source made the active and inactive calls. The calls are words filed in the database; no cut-off is given here.

Take `C[C@@H]1[C@H](O)[C@@H](C)/C=C/C=C/C=C/C=C/C=C/C=C/C=C/[C@H](O[C@@H]2O[C@H](C)[C@@H](O)[C@H](N)[C@@H]2O)C[C@@H]2O[C@](O)(C[C@@H](O)C[C@@H](O)[C@H](O)CC[C@@H](O)C[C@@H](O)CC(=O)O[C@H]1C)C[C@H](O)[C@H]2C(=O)O` [AMPHOTERICIN B]: the CC50 at 72 h in data set [1] worked out at 54.4 µM. Moreover, it took 0.8 µM to reach a half-maximal effect in the data set on Leishmania braziliensis [2] (EC50). For the same compound, the selectivity ratio in data set [3] worked out at 71.8.
The like results for `C[C@]12C=C[C@@]3(CC[C@H]4[C@@](C)(CCC[C@@]4(C)C(=O)O)[C@@H]3CC1)C2` [MONOGINOIC ACID] were, in that order, 130 µM, > 66 µM and > 2.
`C[C@@]12CC[C@@H]3[C@@](CC[C@@H]4[C@](C)(CO)CCC[C@]43C)(CC1)C2`: in data set [1], the CC50 at 72 h is 29.6 µM. Besides, the response with Leishmania braziliensis [2] was half-maximal at 18.1 µM (EC50). Also, the selectivity ratio in [3] was found to be 1.6.
In the case of `C[C@]12CC[C@H]3[C@]4(C)CCC[C@@](C)(C(=O)O)[C@H]4CC[C@@]3(C1)[C@H]1O[C@H]12`, the CC50 at 72 h in data set [1] came out at 64.8 µM. The EC50 with Leishmania braziliensis [2] is 43.3 µM. Further, the selectivity ratio in data set [3] stood at 1.5.
`C[C@@]12CC[C@@H]3[C@@](CC[C@H]4[C@@]3(C)CCC[C@@]4(C)C(=O)O)(CC1=O)C2` [ISOSTEVIOL]: the CC50 at 72 h in data set [1] came to 66.9 µM. Moreover, the concentration giving a half-maximal response (EC50) in the data set on Leishmania braziliensis [2] was > 20 µM. Moreover, the selectivity ratio in data set [3] was > 3.3.
The like results for `C[C@]12CC[C@H]3[C@]4(C)CCC[C@@](C)(CO)[C@H]4CC[C@@]3(C1)[C@H]1O[C@H]12` were, in that order, 118 µM, > 63 µM and > 1.9.
As for `C[C@]12C=C[C@@]3(CC[C@@H]4[C@](C)(CO)CCC[C@@]4(C)[C@@H]3CC1)C2`, the CC50 at 72 h in data set [1] was found to be 114 µM. Moreover, in the data set with Leishmania braziliensis [2], the EC50 is 16 µM. In addition, the selectivity ratio in data set [3] stood at 5.1. Besides, the Activity in the data set with Leishmania braziliensis [4] was 50%; in the data set with Leishmania braziliensis [5] it was 50%; with Leishmania braziliensis [6] it was 16.7%; with Leishmania braziliensis [7] it was 50%; in the data set on Leishmania braziliensis [8], 0%; in the data set on Leishmania braziliensis [9], 16.7%. The Activity was 16.7% with Leishmania braziliensis [10]; “Non-Toxic” in data set [11]; “Non-Toxic” in data set [12]; “Non-Toxic” in [13]; “Non-Toxic” in data set [14]; 0% in the data set on Leishmania braziliensis [15]. Besides, the Activity in the data set on Leishmania braziliensis [19] is on record as <500; in [20], “Toxic”; in [21], “Toxic”; in [22] it was “Toxic”; in [23], “Toxic”; in data set [24] it was “Toxic”. Also, the Activity result in data set [25] is “Toxic”. In addition, the result with Syrian golden hamster [16], with Syrian golden hamster [17] and with Syrian golden hamster [18] was Active.

The term EC50 denotes the concentration giving half of the maximal effect. Read a low EC50 as a more potent agent.
